Assay results from patent publication US20050282755A1, “Compositions having antimicrobial activity and uses thereof” (priority 2004, published 2005).
Values after ≈ are worked out from the molar mass of the structure shown. Starred links: 1 amine or outer side, 2 acyl side, 3 side chain; linkers in the order of their positions; H or OH if unused. Non-standard residues stand in square brackets, D forms with d. Residues, ends and D or L forms follow the SMILES beside them. *: point of attachment. 1Nal = N[C@@H](Cc1cccc2ccccc12)C(=O)O; Ethylenediamine = C(CN[*:2])N[*:1]; Lauroyl = CCCCCCCCCCCC(=O)*; Decanoyl = CCCCCCCCCC(=O)*; Octanoyl = CCCCCCCC(=O)*

Assays:
Assay type in all cases: cell-based
[1] = test system: Propionibacterium acnes ATCC 6919; experiment: MIC, agar dilution method NCCLS M11-A6, Brucella agar, anaerobic (Table 9, superscript c); details: ATCC 6919
Method: A bacterial suspension was prepared to allow for a final inoculum on the plate of 1.5×10^8 CFU/milliliter. After the suspension absorbed into the agar surface, the plates were incubated for 48-96 hours at 37° C. in a GasPak anaerobic chamber. The lowest concentration of peptide that contained no colony growth on the agar plate was determined as the MIC. MIC values that utilized this method of MIC determination are indicated in Table 9 with a superscript letter “c.”

[2] = test system: Staphylococcus aureus ATCC 29213; experiment: MIC, NCCLS M7-A6 broth microdilution, cation-adjusted Mueller Hinton broth (Table 9, no superscript); details: ATCC 29213
Method in brief: (§1)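 Broth microdilution in cation-adjusted Mueller Hinton broth with log-phase inoculum at 5×10^5 to 1×10^6 CFU/mL, incubated overnight at 37° C. MIC was the lowest peptide concentration showing no visible turbidity versus the no-peptide control.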

[3] = test system: Staphylococcus epidermidis ATCC 12228; experiment: MIC, NCCLS M7-A6 broth microdilution (Table 9, no superscript); details: ATCC 12228
Method in brief: as §1

Salmonella dublin (Lane) = experiment: as above
Method in brief: as §1

[4] = test system: Pseudomonas aeruginosa ATCC 27853; experiment: as above; details: ATCC 27853
Method in brief: as §1

[5] = test system: Escherichia coli ATCC 25922; experiment: as above; details: ATCC 25922
Method in brief: as §1

| Structure (SMILES) | MIC P. acnes [1] | MIC S. aureus [2] | MIC S. epidermidis [3] | MIC S. dublin (Salmonella dublin (Lane)) | MIC P. aeruginosa [4] | MIC E. coli [5] |
| --- | --- | --- | --- | --- | --- | --- |
| CCCCCCCCCCCC(=O)N[C@@H](C(=O)N[C@H](CCCNC(=N)N)C(=O)N[C@@H](C(=O)N[C@H](CO)C(=O)N[C@H](CCCNC(=N)N)C(=O)N[C@@H](C(=O)NCC(=O)N[C@H](CCCNC(=N)N)C(=O)N[C@H](CO)C(=O)N[C@H](CCCNC(=N)N)C(=O)N[C@H](Cc1c[nH]c2ccccc12)C(=O)N[C@H](CCCNC(=N)N)C(=O)N[C@H](CC(=O)O)C(=O)N[C@H](Cc1c[nH]c2ccccc12)C(=O)N[C@H](CO)C(=O)N[C@H](CCCNC(=N)N)C(=O)N[C@H](CC(N)=O)C(=O)N[C@H](Cc1ccccc1)C(=O)N[C@H](CCSC)C(=O)N[C@H](CCCNC(=N)N)C(=O)N[C@H](C)C(=O)N[C@H](C)C(=O)N[C@@H](CCCCN)C(N)=O)[C@H](C)O)C(C)C)[C@H](C)O [Peptide 80, Lauryl-trvsrtgrsrwrdwsrnfmraaK-NH2] (Lauroyl-[dT][dR][dV][dS][dR][dT]G[dR][dS][dR][dW][dR][dD][dW][dS][dR][dN][dF][dM][dR][dA][dA]K-NH2) | >64c ug/mL | 16 µg/mL (≈ 5.22 µM) | 2 µg/mL (≈ 0.653 µM) | 16 µg/mL (≈ 5.22 µM) | >64 µg/mL | 32 µg/mL (≈ 10.4 µM) |
| CCCCCCCCCCCC(=O)N[C@@H](CCCNC(=N)N)C(=O)N[C@@H](Cc1c[nH]c2ccccc12)C(=O)N[C@@H](CCCNC(=N)N)C(=O)N[C@@H](CC(=O)O)C(=O)N[C@H](C(=O)N[C@@H](C)C(=O)N[C@@H](CCCNC(=N)N)C(N)=O)C(C)C [Peptide 105, Lauryl-RWRDVAR-NH2] (Lauroyl-RWRDVAR-NH2) | 32c ug/mL | 16 µg/mL (≈ 14 µM) | 8 µg/mL (≈ 7.02 µM) | >32 µg/mL | 32 µg/mL (≈ 28.1 µM) | 32 µg/mL (≈ 28.1 µM) |
| CCCCCCCCCCCC(=O)N[C@@H](Cc1c[nH]c2ccccc12)C(=O)N[C@@H](CCCNC(=N)N)C(=O)N[C@@H](CC(=O)O)C(=O)N[C@H](C(=O)N[C@@H](C)C(=O)N[C@@H](CCCNC(=N)N)C(=O)N[C@@H](CC(N)=O)C(N)=O)C(C)C [Peptide 106, Lauryl-WRDVARN-NH2] (Lauroyl-WRDVARN-NH2) | >64c ug/mL | 8 µg/mL (≈ 7.29 µM) | 16 µg/mL (≈ 14.6 µM) | >64 µg/mL | >64 µg/mL | >64 µg/mL |
| CCCCCCCCCCCC(=O)N[C@@H](CCCNC(=N)N)C(=O)N[C@@H](Cc1c[nH]c2ccccc12)C(=O)N[C@@H](CCCNC(=N)N)C(=O)N[C@@H](CC(=O)O)C(=O)N[C@H](C(=O)N[C@@H](C)C(=O)N[C@@H](CCCNC(=N)N)C(=O)N[C@@H](CC(N)=O)C(=O)N[C@@H](Cc1ccccc1)C(=O)N[C@@H](CCSC)C(=O)N[C@@H](CCCNC(=N)N)C(N)=O)C(C)C [Peptide 113, Lauryl-RWRDVARNFMR-NH2] (Lauroyl-RWRDVARNFMR-NH2) | >64c ug/mL | 4 µg/mL (≈ 2.37 µM) | 2 µg/mL (≈ 1.18 µM) | 16 µg/mL (≈ 9.48 µM) | >64 µg/mL | 8 µg/mL (≈ 4.74 µM) |
| CCCCCCCCCCCC(=O)N[C@@H](CCCNC(=N)N)C(=O)N[C@@H](CO)C(=O)N[C@@H](CCCNC(=N)N)C(=O)N[C@@H](Cc1cccc2ccccc12)C(=O)N[C@@H](CCCNC(=N)N)C(=O)N[C@@H](CC(=O)O)C(=O)N[C@H](C(=O)N[C@@H](C)C(=O)N[C@@H](CCCNC(=N)N)C(=O)N[C@@H](CC(N)=O)C(=O)N[C@@H](Cc1ccccc1)C(=O)N[C@@H](CCSC)C(=O)N[C@@H](CCCNC(=N)N)C(N)=O)C(C)C [Peptide 149, Lauryl-RSRZRDVARNFMR-NH2 Z = 1-naphthylalanine] (Lauroyl-RSR[1Nal]RDVARNFMR-NH2) | 32c ug/mL | 16 µg/mL (≈ 8.24 µM) | 4 µg/mL (≈ 2.06 µM) | 32 µg/mL (≈ 16.5 µM) | >64 µg/mL | 64 µg/mL (≈ 32.9 µM) |
| CCCCCCCCCCCC(=O)N[C@@H](CCCNC(=N)N)C(=O)N[C@@H](CO)C(=O)N[C@@H](CCCNC(=N)N)C(=O)N[C@@H](Cc1c[nH]c2ccccc12)C(=O)N[C@@H](CCCNC(=N)N)C(=O)N[C@@H](CC(=O)O)C(=O)N[C@@H](Cc1cccc2ccccc12)C(=O)N[C@@H](C)C(=O)N[C@@H](CCCNC(=N)N)C(=O)N[C@@H](CC(N)=O)C(=O)N[C@@H](Cc1ccccc1)C(=O)N[C@@H](CCSC)C(=O)N[C@@H](CCCNC(=N)N)C(N)=O [Peptide 150, Lauryl-RSRWRDZARNFMR-NH2 Z = 1-naphthylalanine] (Lauroyl-RSRWRD[1Nal]ARNFMR-NH2) | >64c ug/mL | 8 µg/mL (≈ 3.94 µM) | 4 µg/mL (≈ 1.97 µM) | 32 µg/mL (≈ 15.8 µM) | >64 µg/mL | 64 µg/mL (≈ 31.5 µM) |
| CCCCCCCCCCCC(=O)N[C@@H](CCCNC(=N)N)C(=O)N[C@@H](Cc1c[nH]c2ccccc12)C(=O)N[C@@H](CCCNC(=N)N)C(=O)N[C@@H](CC(=O)O)C(=O)N[C@H](C(=O)N[C@@H](C)C(=O)N[C@@H](CCCNC(=N)N)C(=O)N[C@@H](CC(N)=O)C(=O)N[C@@H](Cc1ccccc1)C(=O)N[C@@H](CC(C)C)C(=O)N[C@@H](CCCNC(=N)N)C(N)=O)C(C)C [Peptide 163, Lauryl-RWRDVARNFLR-NH2] (Lauroyl-RWRDVARNFLR-NH2) | >64c ug/mL | 4 µg/mL (≈ 2.4 µM) | 8 µg/mL (≈ 4.79 µM) | 8 µg/mL (≈ 4.79 µM) | >64 µg/mL | 16 µg/mL (≈ 9.58 µM) |
| CCCCCCCC(=O)NCCNC(=O)[C@H](CCCNC(=N)N)NC(=O)[C@H](CC(C)C)NC(=O)[C@H](Cc1ccccc1)NC(=O)[C@H](CC(N)=O)NC(=O)[C@H](CCCNC(=N)N)NC(=O)[C@H](C)NC(=O)[C@@H](NC(=O)[C@H](CC(=O)O)NC(=O)[C@H](CCCNC(=N)N)NC(=O)[C@H](Cc1c[nH]c2ccccc12)NC(=O)[C@H](CCCNC(=N)N)NC(=O)[C@H](CO)NC(=O)[C@@H](N)CCCNC(=N)N)C(C)C [Peptide 169, H2N-RSRWRDVARNFLR-Ethylamidooctanyl] (H-RSRWRDVARNFLR-{Ethylenediamine-Octanoyl}; C-terminus assumed) | 64c ug/mL | 4 µg/mL (≈ 2.1 µM) | 1 µg/mL (≈ 0.526 µM) | 8 µg/mL (≈ 4.21 µM) | 4 µg/mL (≈ 2.1 µM) | 2 µg/mL (≈ 1.05 µM) |

Next, values leading:

| MIC P. acnes [1] | MIC S. aureus [2] | MIC S. epidermidis [3] | MIC S. dublin (Salmonella dublin (Lane)) | MIC P. aeruginosa [4] | MIC E. coli [5] | Structure (SMILES) |
| --- | --- | --- | --- | --- | --- | --- |
| >64c ug/mL | 8 µg/mL (≈ 4.2 µM) | 2 µg/mL (≈ 1.05 µM) | 32 µg/mL (≈ 16.8 µM) | 32 µg/mL (≈ 16.8 µM) | 8 µg/mL (≈ 4.2 µM) | CCCCCCCCCC(=O)N[C@@H](CCCNC(=N)N)C(=O)N[C@@H](CO)C(=O)N[C@@H](CCCNC(=N)N)C(=O)N[C@@H](Cc1c[nH]c2ccccc12)C(=O)N[C@@H](CCCNC(=N)N)C(=O)N[C@@H](CC(=O)O)C(=O)N[C@H](C(=O)N[C@@H](C)C(=O)N[C@@H](CCCNC(=N)N)C(=O)N[C@@H](CC(N)=O)C(=O)N[C@@H](Cc1ccccc1)C(=O)N[C@@H](CCSC)C(=O)N[C@@H](CCCNC(=N)N)C(N)=O)C(C)C [Peptide 204, Decanyl-RSRWRDVARNFMR-NH2] (Decanoyl-RSRWRDVARNFMR-NH2) |
| 16c ug/mL | 16 µg/mL (≈ 8.53 µM) | 4 µg/mL (≈ 2.13 µM) | 64 µg/mL (≈ 34.1 µM) | 32 µg/mL (≈ 17.1 µM) | 32 µg/mL (≈ 17.1 µM) | CCCCCCCC(=O)N[C@H](CCCNC(=N)N)C(=O)N[C@H](CO)C(=O)N[C@H](CCCNC(=N)N)C(=O)N[C@H](Cc1c[nH]c2ccccc12)C(=O)N[C@H](CCCNC(=N)N)C(=O)N[C@H](CC(=O)O)C(=O)N[C@@H](C(=O)N[C@H](C)C(=O)N[C@H](CCCNC(=N)N)C(=O)N[C@H](CC(N)=O)C(=O)N[C@H](Cc1ccccc1)C(=O)N[C@H](CCSC)C(=O)N[C@H](CCCNC(=N)N)C(N)=O)C(C)C [Peptide 207, Octyl-rsrwrdvarnfmr-NH2] (Octanoyl-[dR][dS][dR][dW][dR][dD][dV][dA][dR][dN][dF][dM][dR]-NH2) |
| 2c ug/mL | 4 µg/mL (≈ 2.1 µM) | >64 µg/mL | 8 µg/mL (≈ 4.2 µM) | >64 µg/mL | >64 µg/mL | CCCCCCCCCC(=O)N[C@H](CCCNC(=N)N)C(=O)N[C@H](CO)C(=O)N[C@H](CCCNC(=N)N)C(=O)N[C@H](Cc1c[nH]c2ccccc12)C(=O)N[C@H](CCCNC(=N)N)C(=O)N[C@H](CC(=O)O)C(=O)N[C@@H](C(=O)N[C@H](C)C(=O)N[C@H](CCCNC(=N)N)C(=O)N[C@H](CC(N)=O)C(=O)N[C@H](Cc1ccccc1)C(=O)N[C@H](CCSC)C(=O)N[C@H](CCCNC(=N)N)C(N)=O)C(C)C [Peptide 208, Decanyl-rsrwrdvarnfmr-NH2] (Decanoyl-[dR][dS][dR][dW][dR][dD][dV][dA][dR][dN][dF][dM][dR]-NH2) |
| 8c ug/mL | 4 µg/mL (≈ 2.09 µM) | 2 µg/mL (≈ 1.05 µM) | 4 µg/mL (≈ 2.09 µM) | 16 µg/mL (≈ 8.36 µM) | 8 µg/mL (≈ 4.18 µM) | CCCCCCCCCCCC(=O)N[C@H](CCCNC(=N)N)C(=O)N[C@H](CO)C(=O)N[C@H](CCCNC(=N)N)C(=O)N[C@H](Cc1c[nH]c2ccccc12)C(=O)N[C@H](CCCNC(=N)N)C(=O)N[C@H](CC(=O)O)C(=O)N[C@@H](C(=O)N[C@H](C)C(=O)N[C@H](CCCNC(=N)N)C(=O)N[C@H](CC(N)=O)C(=O)N[C@H](Cc1ccccc1)C(=O)N[C@H](CC(C)C)C(=O)N[C@H](CCCNC(=N)N)C(N)=O)C(C)C [Peptide 210, Lauryl-rsrwrdvarnflr-NH2] (Lauroyl-[dR][dS][dR][dW][dR][dD][dV][dA][dR][dN][dF][dL][dR]-NH2) |
